Bounds are passed on as bounds.

The assay relates to ATF4 luciferase reporter in HEK293T cells. Briefly: ATF4-Luc assay (in vitro model of VWMD). It is filed as cell-based, human. The conditions noted are these: Homo sapiens, HEK-293T, 7 h, HEK293T cells carrying the ATF4 luciferase reporter, 1 μg/mL tunicamycin, One Glo luminescence. The essentials:
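Tunicamycin (1 μg/mL) stress with co-added compound for 7 hours in HEK293T cells stably carrying an ATF4 5′-UTR–luciferase reporter. EC50 values come from the luminescent signal (One Glo).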
As for `O=C(NC12CC(n3cc(-c4ccc(OC(F)(F)F)cn4)cn3)(C1)C2)[C@H]1C[C@@H](O)c2cc(Cl)c(F)cc2O1` [Compound 361, (2R,4R)-6-chloro-7-fluoro-4-hydroxy-N-(3-{4-[5-(trifluoromethoxy)pyridin-2-yl]-1H-pyrazol-1-yl}bicyclo[1.1.1]pentan-1-yl)-3,4-dihydro-2H-1-benzopyran-2-carboxamide], the concentration giving a half-maximal response (EC50) was < 10 nM.
Consider `O=C(NC12CC(n3cc([C@H]4[C@@H]5CN(CC(F)(F)F)C[C@@H]54)cn3)(C1)C2)[C@H]1C[C@@H](O)c2cc(Cl)ccc2O1` [Compound 583, (2R,4R)-6-chloro-4-hydroxy-N-(3-{4-[(1R,5S,6s)-3-(2,2,2-trifluoroethyl)-3-azabicyclo[3.1.0]hexan-6-yl]-1H-pyrazol-1-yl}bicyclo[1.1.1]pentan-1-yl)-3,4-dihydro-2H-1-benzopyran-2-carboxamide], for which the EC50 is < 10 nM.
The value for `O=C(NC12CC(n3cc(OCCCC(F)(F)F)cn3)(C1)C2)[C@H]1C[C@H](O)c2cc(C(F)(F)F)c(F)cc2O1` [Compound 642, (2R,4S)-7-fluoro-4-hydroxy-N-{3-[4-(4,4,4-trifluorobutoxy)-1H-pyrazol-1-yl]bicyclo[1.1.1]pentan-1-yl}-6-(trifluoromethyl)-3,4-dihydro-2H-1-benzopyran-2-carboxamide] was 10 to 50 nM; that for `O=C(COc1ccc(Cl)c(F)c1)NC12CC(c3ccc(C(=O)N4CC(COC(F)(F)F)C4)nc3)(C1)C2` [Compound 600, 2-(4-chloro-3-fluorophenoxy)-N-[3-(6-{3-[(trifluoromethoxy)methyl]azetidine-1-carbonyl}pyridin-3-yl)bicyclo[1.1.1]pentan-1-yl]acetamide] was < 10 nM.
Take `O=C(NC12CC(n3cc(-c4ccn(C(F)(F)F)n4)cn3)(C1)C2)[C@H]1C[C@@H](O)c2cc(Cl)ccc2O1` [Compound 556, (2R,4R)-6-chloro-4-hydroxy-N-{3-[1-(trifluoromethyl)-1H,1′H-[3,4′-bipyrazol]-1′-yl]bicyclo[1.1.1]pentan-1-yl}-3,4-dihydro-2H-1-benzopyran-2-carboxamide]: the concentration for a half-maximal effect (EC50) was < 10 nM.
Take `O=C(NC12CC(c3cc(OCCCOC(F)(F)F)ncn3)(C1)C2)[C@H]1C[C@@H](O)c2cc(Cl)ccc2O1` [Compound 648, (2R,4R)-6-chloro-4-hydroxy-N-(3-{6-[3-(trifluoromethoxy)propoxy]pyrimidin-4-yl}bicyclo[1.1.1]pentan-1-yl)-3,4-dihydro-2H-1-benzopyran-2-carboxamide]: the EC50 was < 10 nM.
In the case of `O=C(NC12CC(n3cc(CCCOC(F)(F)F)cn3)(C1)C2)[C@H]1C[C@@H](O)c2cc(C(F)(F)F)ccc2O1` [Compound 513, (2R,4R)-4-hydroxy-N-(3-{4-[3-(trifluoromethoxy)propyl]-1H-pyrazol-1-yl}bicyclo[1.1.1]pentan-1-yl)-6-(trifluoromethyl)-3,4-dihydro-2H-1-benzopyran-2-carboxamide], the EC50 was < 10 nM.
As for `O=C(NC12CC(n3cc(-c4ccc(OC(F)(F)F)cn4)cn3)(C1)C2)[C@H]1C[C@@H](O)c2cc(F)c(F)cc2O1` [Compound 369, (2R,4R)-6,7-difluoro-4-hydroxy-N-(3-{4-[5-(trifluoromethoxy)pyridin-2-yl]-1H-pyrazol-1-yl}bicyclo[1.1.1]pentan-1-yl)-3,4-dihydro-2H-1-benzopyran-2-carboxamide], the concentration for a half-maximal effect (EC50) is < 10 nM.
The value for `O=C(NC12CC(n3cc(-c4ccc(OC(F)(F)F)cn4)cn3)(C1)C2)[C@@H]1C[C@@H](O)c2cc(Cl)c(F)cc2O1` [Compound 474, (2S,4R)-6-chloro-7-fluoro-4-hydroxy-N-(3-{4-[5-(trifluoromethoxy)pyridin-2-yl]-1H-pyrazol-1-yl}bicyclo[1.1.1]pentan-1-yl)-3,4-dihydro-2H-1-benzopyran-2-carboxamide] was < 10 nM; that for `O=C(NC12CC(n3cc(-c4ccc(C(F)(F)F)cn4)cn3)(C1)C2)[C@H]1CNc2cc(Cl)ccc2O1` [Compound 572, (2R)-6-chloro-N-(3-{4-[5-(trifluoromethyl)pyridin-2-yl]-1H-pyrazol-1-yl}bicyclo[1.1.1]pentan-1-yl)-3,4-dihydro-2H-1,4-benzoxazine-2-carboxamide] was < 10 nM.
In the case of `O=C(N[C@H]1C[C@H]2CC[C@@H](C1)N2CCCOc1ccc(Cl)cc1)C1C[C@@H](O)c2cc(Cl)ccc2O1` (stereo partly drawn) [Compound 125, (2R,4R)-6-chloro-N-{(1R,3r,5S)-8-[3-(4-chlorophenoxy)propyl]-8-azabicyclo[3.2.1]octan-3-yl}-4-hydroxy-3,4-dihydro-2H-1-benzopyran-2-carboxamide], the EC50 is 50 to 250 nM.
The value for `O=C(NC12CCC(n3cc(-c4ccc(C(F)(F)F)cn4)cn3)(C1)C2)[C@H]1C[C@@H](O)c2cc(Cl)ccc2O1` [Compound 626, (2R,4R)-6-chloro-4-hydroxy-N-(4-{4-[5-(trifluoromethyl)pyridin-2-yl]-1H-pyrazol-1-yl}bicyclo[2.1.1]hexan-1-yl)-3,4-dihydro-2H-1-benzopyran-2-carboxamide] was 10 to 50 nM; that for `O=C(NC12CC(n3cc(-c4ccc(OC(F)(F)F)nc4)cn3)(C1)C2)[C@H]1C[C@@H](O)c2cc(Cl)ccc2O1` [Compound 350, (2R,4R)-6-chloro-4-hydroxy-N-(3-{4-[6-(trifluoromethoxy)pyridin-3-yl]-1H-pyrazol-1-yl}bicyclo[1.1.1]pentan-1-yl)-3,4-dihydro-2H-1-benzopyran-2-carboxamide] was < 10 nM.
For `COc1ccc2nn([C@H]3CC[C@H](NC(=O)[C@H]4C[C@@H](O)c5cc(Cl)ccc5O4)CC3)cc2n1` [Compound 508, (2R,4R)-6-chloro-4-hydroxy-N-[(1r,4R)-4-(5-methoxy-2H-pyrazolo[4,3-b]pyridin-2-yl)cyclohexyl]-3,4-dihydro-2H-1-benzopyran-2-carboxamide], the EC50 lay within 10 to 50 nM.
Regarding `O=C(NC12CC(n3cc(-c4ccc(OC(F)(F)F)cn4)cn3)(C1)C2)[C@H]1C[C@@H](O)c2cc(F)ccc2O1` (racemic) [Compound 552, rac-(2R,4R)-6-fluoro-4-hydroxy-N-(3-{4-[5-(trifluoromethoxy)pyridin-2-yl]-1H-pyrazol-1-yl}bicyclo[1.1.1]pentan-1-yl)-3,4-dihydro-2H-1-benzopyran-2-carboxamide], the EC50 is < 10 nM.
For the molecule `O=C(NC12CC(n3cc(-c4ccc(C5CC5)cn4)cn3)(C1)C2)[C@H]1C[C@@H](O)c2cc(Cl)ccc2O1` [Compound 570, (2R,4R)-6-chloro-N-{3-[4-(5-cyclopropylpyridin-2-yl)-1H-pyrazol-1-yl]bicyclo[1.1.1]pentan-1-yl}-4-hydroxy-3,4-dihydro-2H-1-benzopyran-2-carboxamide], the EC50 is < 10 nM.
The same measure for `O=C(COc1ccc(Cl)c(F)c1)NC12CC(n3cc(C(=O)N[C@H]4C[C@@H](OC(F)(F)F)C4)cn3)(C1)C2` [Compound 362, 1-{3-[2-(4-chloro-3-fluorophenoxy)acetamido]bicyclo[1.1.1]pentan-1-yl}-N-[cis-3-(trifluoromethoxy)cyclobutyl]-1H-pyrazole-4-carboxamide]: 50 to 250 nM; for `O=C(COc1ccc(Cl)c(F)c1)N[C@H]1CC[C@H](n2cc(-c3ccc(C(F)(F)F)cn3)cn2)CC1` [Compound 598, 2-(4-chloro-3-fluorophenoxy)-N-[(1r,4r)-4-(4-[5-(trifluoromethyl)pyridin-2-yl]-1H-pyrazol-1-yl)cyclohexyl]acetamide]: < 10 nM.
Regarding `O=C(NC12CC(n3cc(-c4ccc(C(F)(F)F)cn4)cn3)(C1)C2)[C@@H]1C[C@@H](O)c2cc(Cl)c(F)cc2O1` [Compound 477, (2S,4R)-6-chloro-7-fluoro-4-hydroxy-N-(3-{4-[5-(trifluoromethyl)pyridin-2-yl]-1H-pyrazol-1-yl}bicyclo[1.1.1]pentan-1-yl)-3,4-dihydro-2H-1-benzopyran-2-carboxamide], the EC50 was < 10 nM.

(Values after US20250145594A1, “MODULATORS OF THE INTEGRATED STRESS PATHWAY” (Calico Life Sciences LLC, priority 2020, published 2025).)
